The results in this text go back to ChEMBL document CHEMBL4699514, “Glucose Uptake-Stimulating Galloyl Ester Triterpenoids from Castanopsis sieboldii” (2020).

Calls of active or inactive are those of the source. The calls are words filed in the database; no cut-off is given here.

The test system of one experiment is C2C12. In words: Activation of AMPK pathway in mouse C2C12 cells assessed as increase in AMPK phosphorylation at 10 to 20 uM after 60 mins by Western blot analysis. The class given is cell-based. The following applies: filed as activator, dose microM 10-20, time 60.0 min. On the technique in general: Immunoblotting shows a protein as a band on a membrane.
The test system of another experiment is 3T3-L1. The experiment can be described thus: Induction of glucose uptake in mouse 3T3-L1 adipocytes assessed as [3H]2-deoxy-D-glucose uptake incubated for 1 hr followed by [3H]2-deoxy-D-glucose addition by fluorescence microscopic method. In kind it is functional. To be noted: read-out: ED50 (the source's name).

For the compound `CC1(C)CC[C@]2(C(=O)O[C@@H]3O[C@H](CO)[C@@H](O)[C@H](O)[C@H]3O)CC[C@]3(C)C(=CC[C@@H]4[C@@]5(C)C[C@@H](O)[C@H](OC(=O)c6cc(O)c(O)c(O)c6)[C@](CO)(COC(=O)c6cc(O)c(O)c(O)c6)[C@@H]5CC[C@]43C)[C@@H]2C1`, the outcome in the experiment on C2C12 was Active. Also, in the experiment with 3T3-L1, the EC50 came out at 12.1 µM.

On to `CC1(C)CC[C@]2(C(=O)O)CC[C@]3(C)C(=CC[C@@H]4[C@@]5(C)C[C@@H](O)[C@H](O)C(CO)(CO)[C@@H]5CC[C@]43C)[C@@H]2C1`, for which the EC50 in the experiment with 3T3-L1 stood at 6.89 µM.

As for `CC1(C)CC[C@]2(C(=O)O[C@@H]3O[C@H](CO)[C@@H](O)[C@H](O)[C@H]3O)CC[C@]3(C)C(=CC[C@@H]4[C@@]5(C)C[C@@H](O)[C@H](OC(=O)c6cc(O)c(O)c(O)c6)C6(COC(=O)c7cc(O)c(O)c(O)c7-c7c(cc(O)c(O)c7O)C(=O)OC6)[C@@H]5CC[C@]43C)[C@@H]2C1`, in the experiment with 3T3-L1, the EC50 came to 10.6 µM.
